Measured values published in patent US9980943B2, “Methods of treating muscular dystrophy” (BOARD OF REGENTS OF THE NEVADA SYSTEM OF HIGHER EDUCATION, …, priority 2013, dated 2018).

Tests used:
Format in all cases: cell-based, mouse
[1] = tested on: α7 integrin (LacZ reporter in α7βgal+/− myoblasts); assay: Myoblast α7+/LacZ integrin FDG assay (Burkin assay in myoblasts, 96-well); conditions: α7+/LacZ myoblasts, 96-well
[2] = tested on: β-galactosidase in CMV-LacZ C2C12 myotubes; assay: CMV-LacZ secondary screen in C2C12 myotubes (β-Gal stabilizing assay); conditions: for CMV-LACZ in Myotubes (β-galactosidase activity relative to DMSO): CMV-LacZ C2C12 myotubes, 96-well format
Summary of the method: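 β-Gal level was the read-out, measured in a clonal C2C12 line expressing LacZ from a CMV promoter. Dose-response curves used six concentrations, 0.5 μM up to 40 μM, with duplicate points.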

[3] = tested on: α7 integrin (LacZ reporter in α7+/LacZ myotubes); assay: Myotube α7 integrin FDG assay (Burkin assay in myotubes, 96-well); conditions: myotubes
[4] = 5 uM, C2C12 CMV-LacZ myotubes, fold relative to DMSO
[5] = 10 uM, C2C12 CMV-LacZ myotubes, fold relative to DMSO
[6] = 20 uM, C2C12 CMV-LacZ myotubes, fold relative to DMSO
[7] = 40 uM, C2C12 CMV-LacZ myotubes, fold relative to DMSO

SMILES	Burkin Assay in Myoblasts, signal relative to DMSO ([1]; 0.5 uM)	Burkin Assay in Myoblasts, signal relative to DMSO ([1]; 1 uM)	Burkin Assay in Myoblasts, signal relative to DMSO ([1]; 5 uM)	Burkin Assay in Myoblasts, signal relative to DMSO ([1]; 10 uM)	Burkin Assay in Myoblasts, signal relative to DMSO ([1]; 20 uM)	Burkin Assay in Myoblasts, signal relative to DMSO ([1]; 40 uM)	CMV-LACZ in Myotubes, signal relative to DMSO [2, 4]	CMV-LACZ in Myotubes, signal relative to DMSO [2, 5]	CMV-LACZ in Myotubes, signal relative to DMSO [2, 6]	CMV-LACZ in Myotubes, signal relative to DMSO [2, 7]	Burkin Assay in Myotubes, α7 integrin LacZ reporter signal relative to DMSO ([3]; 0.5 uM)	Burkin Assay in Myotubes, α7 integrin LacZ reporter signal relative to DMSO ([3]; 1 uM)	Burkin Assay in Myotubes, α7 integrin LacZ reporter signal relative to DMSO ([3]; 5 uM)	Burkin Assay in Myotubes, α7 integrin LacZ reporter signal relative to DMSO ([3]; 10 uM)	Burkin Assay in Myotubes, α7 integrin LacZ reporter signal relative to DMSO ([3]; 20 uM)	Burkin Assay in Myotubes, α7 integrin LacZ reporter signal relative to DMSO ([3]; 40 uM)	Burkin Assay in Myoblasts, value relative to DMSO ([1]; 0.5 uM)	Burkin Assay in Myoblasts, value relative to DMSO ([1]; 1 uM)	Burkin Assay in Myoblasts, value relative to DMSO ([1]; 5 uM)	Burkin Assay in Myoblasts, value relative to DMSO ([1]; 10 uM)	other results
COc1ccc(-c2cc(COc3ccccc3)on2)cc1 [MLS000695955-01]	–	–	–	–	–	–	–	–	–	–	–	–	–	–	–	–	–	–	–	–	fold induction at 0.5 µM ([1]; Mus musculus, Myoblast, 48 h, 0.5 uM, read-out: Burkin Assay in Myoblasts, signal relative to DMSO): 0.902; fold induction at 1 µM ([1]; Mus musculus, Myoblast, 48 h, 1 uM, read-out: Burkin Assay in Myoblasts, signal relative to DMSO): 0.871; fold induction at 5 µM ([1]; Mus musculus, Myoblast, 48 h, 5 uM, read-out: Burkin Assay in Myoblasts, signal relative to DMSO): 1.08; fold induction at 10 µM ([1]; Mus musculus, Myoblast, 48 h, 10 uM, read-out: Burkin Assay in Myoblasts, signal relative to DMSO): 1.06; fold induction at 20 µM ([1]; Mus musculus, Myoblast, 48 h, 20 uM, read-out: Burkin Assay in Myoblasts, signal relative to DMSO): 0.961; fold induction at 40 µM ([1]; Mus musculus, Myoblast, 48 h, 40 uM, read-out: Burkin Assay in Myoblasts, signal relative to DMSO): 1.03; fold induction at 5 µM ([2]; Mus musculus, C2C12, read-out: CMV-LACZ in Myotubes, signal relative to DMSO, 5 uM, C2C12 CMV-LacZ myotubes, fold relative to DMSO): 0.789; fold induction at 10 µM ([2]; Mus musculus, C2C12, read-out: CMV-LACZ in Myotubes, signal relative to DMSO, 10 uM, C2C12 CMV-LacZ myotubes, fold relative to DMSO): 0.896; fold induction at 20 µM ([2]; Mus musculus, C2C12, read-out: CMV-LACZ in Myotubes, signal relative to DMSO, 20 uM, C2C12 CMV-LacZ myotubes, fold relative to DMSO): 0.992; fold induction at 40 µM ([2]; Mus musculus, C2C12, read-out: CMV-LACZ in Myotubes, signal relative to DMSO, 40 uM, C2C12 CMV-LacZ myotubes, fold relative to DMSO): 0.93; fold induction at 0.5 µM ([3]; Mus musculus, Myotube, 0.5 uM, read-out: Burkin Assay in Myotubes, α7 integrin LacZ reporter signal relative to DMSO): 0.945; fold induction at 1 µM ([3]; Mus musculus, Myotube, 1 uM, read-out: Burkin Assay in Myotubes, α7 integrin LacZ reporter signal relative to DMSO): 1.03; fold induction at 5 µM ([3]; Mus musculus, Myotube, 5 uM, read-out: Burkin Assay in Myotubes, α7 integrin LacZ reporter signal relative to DMSO): 1.15; fold induction at 10 µM ([3]; Mus musculus, Myotube, 10 uM, read-out: Burkin Assay in Myotubes, α7 integrin LacZ reporter signal relative to DMSO): 1.32; fold induction at 20 µM ([3]; Mus musculus, Myotube, 20 uM, read-out: Burkin Assay in Myotubes, α7 integrin LacZ reporter signal relative to DMSO): 1.23; fold induction at 40 µM ([3]; Mus musculus, Myotube, 40 uM, read-out: Burkin Assay in Myotubes, α7 integrin LacZ reporter signal relative to DMSO): 1.39
COc1ccc(N2CCN(CCC3Oc4cc([N+](=O)[O-])ccc4NC3=O)CC2)cc1 (centres unmarked) [MLS000696445-01]	1.013	0.5621	0.867	0.8807	0.813	0.807	1.268	1.011	1.122	0.924	0.8602	0.8637	0.9714	0.625	0.5843	0.8433	–	–	–	–	–
O=C(N/N=C/c1cn[nH]c1-c1ccc(F)cc1)c1ccncc1 [MLS000698686-01]	–	–	–	–	–	–	0.8364	0.9727	0.8864	0.8864	–	–	–	–	–	–	1.037	1.018	1.054	1.075	Burkin Assay in Myoblasts, value relative to DMSO ([1]; 20 uM): 0.8456; Burkin Assay in Myoblasts, value relative to DMSO ([1]; 40 uM): 0.8252; Burkin Assay in Myotubes (signal relative to DMSO) ([3]; 0.5 uM): 0.8838; Burkin Assay in Myotubes (signal relative to DMSO) ([3]; 1 uM): 0.6159; Burkin Assay in Myotubes (signal relative to DMSO) ([3]; 5 uM): 1.013; Burkin Assay in Myotubes (signal relative to DMSO) ([3]; 10 uM): 0.966; Burkin Assay in Myotubes (signal relative to DMSO) ([3]; 20 uM): 0.6986; Burkin Assay in Myotubes (signal relative to DMSO) ([3]; 40 uM): 0.9722
CCOc1ccc(NC(=O)CN2C(=O)S/C(=C/c3cccn3C)C2=O)cc1 [MLS000702680-01]	0.845	0.8804	0.8623	0.8908	0.6925	0.6264	1.008	1.107	1.233	1.181	1.016	0.9196	0.9678	0.7773	0.8074	0.7464	–	–	–	–	–
O=C(Nc1ccccc1F)c1ccc([N+](=O)[O-])s1 [MLS000703499-01]	0.7093	1.017	0.9278	0.7632	0.4465	0.1043	0.9313	0.9968	0.689	0.769	0.9725	0.8809	1.059	0.8518	1.101	0.4494	–	–	–	–	–
O=C(/C(=C(/[O-])c1ccccc1)[n+]1ccccc1)c1ccc([N+](=O)[O-])cc1 [MLS000705922-01]	–	–	–	–	–	–	–	–	–	–	–	–	–	–	–	–	0.9627	1.02	0.7282	0.7283	Burkin Assay in Myoblasts, value relative to DMSO ([1]; 20 uM): 0.8892; Burkin Assay in Myoblasts, value relative to DMSO ([1]; 40 uM): 0.8783; CMV-LACZ in Myotubes (β-galactosidase activity relative to DMSO) ([2]; 5 uM): 0.8776; CMV-LACZ in Myotubes (β-galactosidase activity relative to DMSO) ([2]; 10 uM): 0.9306; CMV-LACZ in Myotubes (β-galactosidase activity relative to DMSO) ([2]; 20 uM): 0.9302; CMV-LACZ in Myotubes (β-galactosidase activity relative to DMSO) ([2]; 40 uM): 0.9947; Burkin Assay in Myotubes (signal relative to DMSO) ([3]; 0.5 uM): 0.8984; Burkin Assay in Myotubes (signal relative to DMSO) ([3]; 1 uM): 1.137; Burkin Assay in Myotubes (signal relative to DMSO) ([3]; 5 uM): 0.8511; Burkin Assay in Myotubes (signal relative to DMSO) ([3]; 10 uM): 0.9544; Burkin Assay in Myotubes (signal relative to DMSO) ([3]; 20 uM): 0.9072; Burkin Assay in Myotubes (signal relative to DMSO) ([3]; 40 uM): 1.039
Cc1cc(C)nc(NC(=O)c2ccc(Cl)cc2Cl)n1 [MLS000706349-01]	1.086	0.9797	0.8593	0.8434	0.8584	0.6533	0.9465	0.9553	1.0245	1.1355	1.193	1.008	0.9738	0.9294	1.073	0.9239	–	–	–	–	–
S=c1[nH]nc(Cn2cnc3ccccc32)n1-c1ccccc1 [MLS000707281-01]	–	–	–	–	–	–	–	–	–	–	–	–	–	–	–	–	0.9507	0.9756	0.8935	0.8854	Burkin Assay in Myoblasts, value relative to DMSO ([1]; 20 uM): 0.8359; Burkin Assay in Myoblasts, value relative to DMSO ([1]; 40 uM): 0.7969; CMV-LACZ in Myotubes (β-galactosidase activity relative to DMSO) ([2]; 5 uM): 0.8706; CMV-LACZ in Myotubes (β-galactosidase activity relative to DMSO) ([2]; 10 uM): 0.9255; CMV-LACZ in Myotubes (β-galactosidase activity relative to DMSO) ([2]; 20 uM): 0.9474; CMV-LACZ in Myotubes (β-galactosidase activity relative to DMSO) ([2]; 40 uM): 0.9526; Burkin Assay in Myotubes (signal relative to DMSO) ([3]; 0.5 uM): 1.011; Burkin Assay in Myotubes (signal relative to DMSO) ([3]; 1 uM): 0.6537; Burkin Assay in Myotubes (signal relative to DMSO) ([3]; 5 uM): 1.059; Burkin Assay in Myotubes (signal relative to DMSO) ([3]; 10 uM): 0.7505; Burkin Assay in Myotubes (signal relative to DMSO) ([3]; 20 uM): 1.156; Burkin Assay in Myotubes (signal relative to DMSO) ([3]; 40 uM): 1.141
